*1 amine or outer side, *2 acyl side, *3 side chain or, on linkers, in order; H or OH if unused. Where a SMILES comes first, the peptide text is derived from it. Bridges are numbered along the chain shown (N, C = ends). [ ]: non-standard residue; d: D form. The star is where a group is joined. hTyr(3S-OH,4S-OH,3'-OSO3H) = N[C@H](C(=O)O)[C@H](O)[C@@H](O)c1ccc(O)c(OS(=O)(=O)O)c1; Orn(4R-OH,5R-OH) = O=C([C@H](C[C@@H](O)[C@@H](O)N[*:3])N[*:1])[*:2]; Pro(3S-OH,4S-Me) = C[C@H]1CN[C@H](C(=O)O)[C@H]1O; X1 = CCCCCOc1ccc(-c2cc(-c3ccc(C(=O)*)cc3)no2)cc1; Gln(3R-OH) = NC(=O)C[C@@H](O)[C@H](N)C(=O)O; Hyp = O=C(O)[C@@H]1C[C@@H](O)CN1 Some results are limits rather than exact numbers.

Some targets named below: Melanocortin receptor 3 (Homo sapiens, UniProt P41968); Vasopressin V2 receptor (Homo sapiens, UniProt P30518); Vasopressin V1a receptor (Homo sapiens, UniProt P37288).
Test [1] addresses T1, Alpha-1A adrenergic receptor (Homo sapiens, UniProt P35348).
T1 sequence (P35348 whole entry): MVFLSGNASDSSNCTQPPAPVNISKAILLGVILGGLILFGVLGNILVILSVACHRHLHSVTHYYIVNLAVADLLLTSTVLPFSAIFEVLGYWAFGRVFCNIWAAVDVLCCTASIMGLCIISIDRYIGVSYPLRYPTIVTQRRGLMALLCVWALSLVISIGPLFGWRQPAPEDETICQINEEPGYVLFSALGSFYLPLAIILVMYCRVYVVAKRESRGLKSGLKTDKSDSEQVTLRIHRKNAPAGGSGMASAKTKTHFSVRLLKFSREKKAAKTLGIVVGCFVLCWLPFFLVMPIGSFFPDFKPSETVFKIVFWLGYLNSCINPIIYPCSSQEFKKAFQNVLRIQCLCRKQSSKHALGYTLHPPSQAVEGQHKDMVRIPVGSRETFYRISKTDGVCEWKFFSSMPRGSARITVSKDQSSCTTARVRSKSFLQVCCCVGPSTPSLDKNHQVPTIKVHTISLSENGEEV
It counts as functional, cell-based.

The target in test [2] is T2, Amine oxidase [flavin-containing] A (Homo sapiens, UniProt P21397).
T2 sequence (P21397 whole entry): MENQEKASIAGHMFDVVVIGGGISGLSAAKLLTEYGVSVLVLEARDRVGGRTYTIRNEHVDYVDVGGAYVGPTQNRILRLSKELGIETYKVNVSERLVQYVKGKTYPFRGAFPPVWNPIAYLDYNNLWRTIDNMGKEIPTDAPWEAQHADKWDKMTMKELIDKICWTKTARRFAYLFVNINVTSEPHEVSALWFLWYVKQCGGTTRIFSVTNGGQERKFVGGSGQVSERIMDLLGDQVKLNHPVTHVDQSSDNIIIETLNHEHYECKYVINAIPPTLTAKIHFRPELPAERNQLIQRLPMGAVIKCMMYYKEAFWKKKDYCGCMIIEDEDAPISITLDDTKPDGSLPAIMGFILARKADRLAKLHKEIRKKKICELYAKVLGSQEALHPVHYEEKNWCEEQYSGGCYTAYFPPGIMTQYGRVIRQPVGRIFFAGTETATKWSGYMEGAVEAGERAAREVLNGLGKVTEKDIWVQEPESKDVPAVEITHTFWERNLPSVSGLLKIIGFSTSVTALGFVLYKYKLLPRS
The test is classed as functional.

The target of test [3] is Gamma-aminobutyric acid receptor subunit alpha-1 (Rattus norvegicus, UniProt P62813). It counts as functional.
Test [4] concerns the target Neuronal acetylcholine receptor subunit alpha-4 (Homo sapiens, UniProt P43681).
The target in test [5] is T3, 5-hydroxytryptamine receptor 1A (Homo sapiens, UniProt P08908).
T3 sequence (P08908 whole entry): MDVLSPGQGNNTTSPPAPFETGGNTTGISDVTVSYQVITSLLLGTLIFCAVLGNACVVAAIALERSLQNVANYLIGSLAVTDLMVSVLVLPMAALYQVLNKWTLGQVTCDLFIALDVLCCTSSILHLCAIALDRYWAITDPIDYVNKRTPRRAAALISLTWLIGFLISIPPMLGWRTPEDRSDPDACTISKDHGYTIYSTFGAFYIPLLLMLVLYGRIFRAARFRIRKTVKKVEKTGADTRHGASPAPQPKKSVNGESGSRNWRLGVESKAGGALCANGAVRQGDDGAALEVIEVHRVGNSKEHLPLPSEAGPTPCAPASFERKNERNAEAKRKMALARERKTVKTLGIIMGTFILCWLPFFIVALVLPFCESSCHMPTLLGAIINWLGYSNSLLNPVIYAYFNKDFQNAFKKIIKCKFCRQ
The test is classed as functional, cell-based.

For the next test, the target named is Histamine H2 receptor (Homo sapiens, UniProt P25021). It counts as functional, cell-based.
In a further test the target is T4, B2 bradykinin receptor (Homo sapiens, UniProt P30411).
T4 sequence (P30411 whole entry): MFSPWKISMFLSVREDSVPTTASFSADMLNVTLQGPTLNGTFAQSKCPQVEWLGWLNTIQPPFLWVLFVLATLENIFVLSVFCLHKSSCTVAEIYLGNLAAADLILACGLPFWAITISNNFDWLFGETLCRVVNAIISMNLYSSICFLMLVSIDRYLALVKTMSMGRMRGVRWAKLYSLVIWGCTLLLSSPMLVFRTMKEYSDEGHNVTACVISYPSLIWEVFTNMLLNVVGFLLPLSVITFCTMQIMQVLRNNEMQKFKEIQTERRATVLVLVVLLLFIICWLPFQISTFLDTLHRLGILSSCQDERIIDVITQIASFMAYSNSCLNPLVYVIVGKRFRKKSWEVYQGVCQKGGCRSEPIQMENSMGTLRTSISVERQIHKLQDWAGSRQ

Test [6] addresses T5, Type-1 angiotensin II receptor (Homo sapiens, UniProt P30556).
T5 sequence (P30556 whole entry): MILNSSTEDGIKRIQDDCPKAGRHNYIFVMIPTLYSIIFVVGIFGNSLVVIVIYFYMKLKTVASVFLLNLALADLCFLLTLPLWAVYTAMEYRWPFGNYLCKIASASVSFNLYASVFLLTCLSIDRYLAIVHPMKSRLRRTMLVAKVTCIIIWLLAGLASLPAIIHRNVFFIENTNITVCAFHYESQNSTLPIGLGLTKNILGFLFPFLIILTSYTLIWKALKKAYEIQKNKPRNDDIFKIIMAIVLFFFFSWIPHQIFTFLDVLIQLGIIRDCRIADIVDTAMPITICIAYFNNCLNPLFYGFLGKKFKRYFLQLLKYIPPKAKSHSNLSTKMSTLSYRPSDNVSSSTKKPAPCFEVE
Note: assay procedure not described here.

Histamine H2 receptor, sequence (P25021 whole entry): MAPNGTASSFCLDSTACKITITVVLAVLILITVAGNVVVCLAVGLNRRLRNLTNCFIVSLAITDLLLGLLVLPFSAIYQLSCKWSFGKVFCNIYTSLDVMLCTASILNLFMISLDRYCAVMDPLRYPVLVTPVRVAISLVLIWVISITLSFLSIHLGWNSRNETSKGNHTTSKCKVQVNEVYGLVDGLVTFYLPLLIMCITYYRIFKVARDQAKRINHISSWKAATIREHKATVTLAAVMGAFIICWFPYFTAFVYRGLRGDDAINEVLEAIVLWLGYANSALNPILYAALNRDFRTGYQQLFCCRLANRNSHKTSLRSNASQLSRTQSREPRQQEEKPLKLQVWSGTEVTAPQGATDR
Vasopressin V2 receptor, sequence (P30518 whole entry): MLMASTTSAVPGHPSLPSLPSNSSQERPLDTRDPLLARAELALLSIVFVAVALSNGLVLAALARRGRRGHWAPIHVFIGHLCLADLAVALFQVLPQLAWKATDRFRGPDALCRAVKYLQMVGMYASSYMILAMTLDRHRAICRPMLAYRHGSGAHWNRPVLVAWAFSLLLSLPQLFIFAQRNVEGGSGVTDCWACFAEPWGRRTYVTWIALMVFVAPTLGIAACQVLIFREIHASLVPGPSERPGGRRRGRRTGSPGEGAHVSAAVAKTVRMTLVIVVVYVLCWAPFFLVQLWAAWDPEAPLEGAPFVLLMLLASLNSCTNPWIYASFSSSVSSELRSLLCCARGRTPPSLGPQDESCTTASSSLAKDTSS
Neuronal acetylcholine receptor subunit alpha-4, sequence (P43681 whole entry): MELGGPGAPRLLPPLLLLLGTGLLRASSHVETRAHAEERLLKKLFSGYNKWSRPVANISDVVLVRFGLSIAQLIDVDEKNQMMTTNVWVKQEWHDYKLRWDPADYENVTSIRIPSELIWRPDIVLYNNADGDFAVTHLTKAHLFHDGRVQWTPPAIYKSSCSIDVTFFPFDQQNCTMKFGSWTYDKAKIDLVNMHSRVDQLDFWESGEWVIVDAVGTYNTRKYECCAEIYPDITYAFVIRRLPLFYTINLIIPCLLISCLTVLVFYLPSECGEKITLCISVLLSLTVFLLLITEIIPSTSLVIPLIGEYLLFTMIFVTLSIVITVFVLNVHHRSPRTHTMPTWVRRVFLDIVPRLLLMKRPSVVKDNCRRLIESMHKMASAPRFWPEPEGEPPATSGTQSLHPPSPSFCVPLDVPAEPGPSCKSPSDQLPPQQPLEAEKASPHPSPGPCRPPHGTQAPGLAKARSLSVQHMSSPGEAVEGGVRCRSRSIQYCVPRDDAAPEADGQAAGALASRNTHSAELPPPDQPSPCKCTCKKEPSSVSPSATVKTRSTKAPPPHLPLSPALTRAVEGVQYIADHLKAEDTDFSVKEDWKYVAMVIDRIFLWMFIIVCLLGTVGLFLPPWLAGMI
Vasopressin V1a receptor, sequence (P37288 whole entry): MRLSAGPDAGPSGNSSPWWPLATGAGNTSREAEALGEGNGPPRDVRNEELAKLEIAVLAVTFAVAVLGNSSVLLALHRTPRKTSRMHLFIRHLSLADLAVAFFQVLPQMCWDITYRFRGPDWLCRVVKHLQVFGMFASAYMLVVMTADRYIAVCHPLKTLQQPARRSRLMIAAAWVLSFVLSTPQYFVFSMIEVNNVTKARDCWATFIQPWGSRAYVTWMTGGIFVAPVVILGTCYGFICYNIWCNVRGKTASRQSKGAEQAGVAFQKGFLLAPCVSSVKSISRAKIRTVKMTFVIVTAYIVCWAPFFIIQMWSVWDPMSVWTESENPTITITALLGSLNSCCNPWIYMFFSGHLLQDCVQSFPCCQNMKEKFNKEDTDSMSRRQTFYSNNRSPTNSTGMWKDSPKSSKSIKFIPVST
Melanocortin receptor 3, sequence (P41968 whole entry): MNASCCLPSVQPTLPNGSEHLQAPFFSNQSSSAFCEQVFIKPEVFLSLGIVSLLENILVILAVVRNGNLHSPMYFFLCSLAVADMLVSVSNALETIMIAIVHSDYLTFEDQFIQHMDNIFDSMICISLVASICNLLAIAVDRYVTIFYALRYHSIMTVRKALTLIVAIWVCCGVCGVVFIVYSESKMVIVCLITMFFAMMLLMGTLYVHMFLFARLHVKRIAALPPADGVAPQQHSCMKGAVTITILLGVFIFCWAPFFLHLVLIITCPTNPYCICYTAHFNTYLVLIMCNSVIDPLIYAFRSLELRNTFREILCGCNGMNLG
Gamma-aminobutyric acid receptor subunit alpha-1, sequence (P62813 whole entry): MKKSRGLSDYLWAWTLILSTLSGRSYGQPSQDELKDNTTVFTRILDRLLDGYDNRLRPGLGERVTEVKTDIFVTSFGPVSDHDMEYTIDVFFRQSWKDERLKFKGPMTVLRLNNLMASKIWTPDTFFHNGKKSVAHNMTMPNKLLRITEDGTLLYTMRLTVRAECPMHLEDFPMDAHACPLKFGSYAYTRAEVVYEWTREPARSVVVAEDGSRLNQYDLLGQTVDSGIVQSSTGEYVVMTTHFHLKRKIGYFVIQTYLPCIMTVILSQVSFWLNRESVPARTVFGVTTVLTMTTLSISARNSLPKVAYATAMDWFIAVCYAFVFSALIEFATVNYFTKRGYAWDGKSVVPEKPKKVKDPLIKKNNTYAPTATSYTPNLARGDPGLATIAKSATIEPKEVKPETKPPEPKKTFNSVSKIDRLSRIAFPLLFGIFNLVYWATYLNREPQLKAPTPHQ

As for `C[C@]12CC[C@@H]3c4ccc(O)cc4CC[C@H]3[C@@H]1CC[C@@H]2OC(=O)CCC1CCCC1` [ESTRADIOL CYPIONATE], the AC50 in test [1] and in [2] was greater than 30 µM each time.
For the compound `CC1(C)O[C@@H]2C[C@H]3[C@@H]4CCC5=CC(=O)CC[C@]5(C)[C@@]4(F)[C@@H](O)C[C@]3(C)[C@]2(C(=O)CCl)O1` [HALCINONIDE], the AC50 in test [1] and in [2] was greater than 30 µM throughout.
In the case of `C[C@]12CCC(=O)C=C1CC[C@@H]1[C@@H]2[C@@H](O)C[C@@]2(C)[C@H]1CC[C@]2(O)C(=O)COC(=O)CCC(=O)O` [HYDROCORTISONE HEMISUCCINATE ANHYDROUS], the AC50 in test [1] and in test [2] was greater than 30 µM throughout.
For `N=C(N)NCc1cccc([123I])c1` [IOBENGUANE I 123], the AC50 was greater than 30 µM in [1] and 26.4 µM in test [2].
Consider `CC(C)(N)C(=O)N[C@H](Cc1c[nH]c2ccccc12)C(=O)N[C@H](Cc1c[nH]c2ccccc12)NC=O` [MACIMORELIN], for which the AC50 in [1] and in test [2] was greater than 30 µM throughout.
As for `C=C1c2c(Cl)ccc(O)c2C(=O)C2=C(O)[C@]3(O)C(=O)C(C(N)=O)=C(O)[C@@H](N(C)C)[C@@H]3[C@@H](O)[C@H]12` [MECLOCYCLINE], the AC50 in test [1] and in test [2] was greater than 30 µM in each case.
Regarding `Cc1cc2c(OCC(O)CNC(C)C)cccc2[nH]1` (centres undefined) [MEPINDOLOL], the concentration at half-maximal activity (AC50) in test [1] and in test [2] was greater than 30 µM in each case.
`CC(=O)/N=c1/sc(S(N)(=O)=O)nn1C` [METHAZOLAMIDE]: the AC50 (in test [3]; on Melanocortin receptor 3; on Vasopressin V2 receptor; in test [4]; in [5]; at Histamine H2 receptor) was greater than 10 µM in each case. Also, the AC50 is greater than 30 µM in test [1]; greater than 10 µM at B2 bradykinin receptor; greater than 10 µM in test [6]; greater than 30 µM in test [2]; greater than 10 µM on Vasopressin V1a receptor.
Regarding `CCCCCOc1ccc(-c2cc(-c3ccc(C(=O)N[C@H]4C[C@@H](O)[C@@H](O)NC(=O)[C@@H]5[C@@H](O)[C@@H](C)CN5C(=O)[C@H]([C@H](O)CC(N)=O)NC(=O)[C@H]([C@H](O)[C@@H](O)c5ccc(O)c(OS(=O)(=O)O)c5)NC(=O)[C@@H]5C[C@@H](O)CN5C(=O)[C@H]([C@@H](C)O)NC4=O)cc3)no2)cc1` [MICAFUNGIN] (X1-[Orn(4R-OH,5R-OH)]T[Hyp][hTyr(3S-OH,4S-OH,3'-OSO3H)][Gln(3R-OH)][Pro(3S-OH,4S-Me)]; lactam 1-C), the AC50 in test [1] and in test [2] was greater than 30 µM each time.
On to `CCOc1cc(N)c(Cl)cc1C(=O)NCC1CN(Cc2ccc(F)cc2)CCO1` (centres undefined) [MOSAPRIDE], for which the AC50 in [1] and in [2] was greater than 30 µM in each case.
On to `CCOc1ccc2ccccc2c1C(=O)N[C@@H]1C(=O)N2[C@@H]1SC(C)(C)[C@@H]2C(=O)O` [NAFCILLIN], for which the AC50 in test [1] and in [2] was greater than 30 µM in each case.
In the case of `CN1CCC[C@H]1c1cccnc1` [NICOTINE], the concentration at half-maximal activity (AC50) in test [1] and in test [2] was greater than 30 µM each time.
Regarding `CC(=O)Oc1ccccc1C(=O)Nc1ncc([N+](=O)[O-])s1` [NITAZOXANIDE], the AC50 in test [3] is greater than 30 µM; on Melanocortin receptor 3 it was 14 µM; at Vasopressin V2 receptor, 14 µM; in [4] it was 8.8 µM; in test [5], greater than 30 µM; on Histamine H2 receptor, greater than 30 µM. Also, the AC50 was greater than 10 µM in test [1]; 4.9 µM on B2 bradykinin receptor; 5.6 µM in test [6]; greater than 30 µM in test [2]; 17 µM at Vasopressin V1a receptor.
Take `C#C[C@]1(O)CC[C@H]2[C@@H]3CCC4=C(CCC(=O)C4)[C@H]3CC[C@@]21C` [NORETHYNODREL]: the AC50 in test [1] and in test [2] was greater than 30 µM in each case.
Regarding `CCCCCCCCCCC[C@@H](C[C@@H]1OC(=O)[C@H]1CCCCCC)OC(=O)[C@H](CC(C)C)NC=O` [ORLISTAT], the AC50 in test [1] and in [2] was greater than 30 µM in each case.
For the compound `O=C1[C@H]2CCCC[C@H]2C(=O)N1CCCCN1CCN(c2nsc3ccccc23)CC1` [PEROSPIRONE], the AC50 in [1] and in test [2] was greater than 30 µM throughout.
For `CN(C)CCC(c1ccccc1)c1ccccn1` (centres undefined) [PHENIRAMINE], the AC50 in [1] and in test [2] was greater than 30 µM throughout.
Consider `CC(C)COc1ccc(CNC(=O)N(Cc2ccc(F)cc2)C2CCN(C)CC2)cc1` [PIMAVANSERIN], for which the AC50 in test [1] and in test [2] was greater than 30 µM throughout.
`CC(C)(C)C(=O)NCCCC(=O)O` [PIVAGABINE]: the AC50 in [1] and in test [2] was greater than 30 µM each time.
Turning to `CC(C)[N+](C)(CCOC(=O)C1c2ccccc2Oc2ccccc21)C(C)C` [PROPANTHELINE], the AC50 in test [1] and in test [2] was greater than 30 µM in each case.
Regarding `CN(C)C(=O)c1nc(CNC(=O)CN)n(-c2ccc(Cl)cc2C(=O)c2ccccc2Cl)n1` [RILMAZAFONE], the AC50 in test [1] and in test [2] was greater than 30 µM in each case.
`NC(=O)NS(=O)(=O)c1ccc(N)cc1` [SULFACARBAMIDE]: the AC50 in test [1] and in [2] was greater than 30 µM throughout.
Regarding `CCCCCCCCNC(C)C(O)c1ccc(SC(C)C)cc1` (centres undefined) [SULOCTIDIL], the AC50 in [1] is 11 µM; in test [2], greater than 30 µM.
Regarding `CCCCNc1ccc(C(=O)OCCN(C)C)cc1` [TETRACAINE], the AC50 in [3] is greater than 10 µM; on Melanocortin receptor 3 it was greater than 30 µM; at Vasopressin V2 receptor it was greater than 30 µM; in test [4], greater than 10 µM; in test [5], greater than 10 µM; on Histamine H2 receptor it was greater than 10 µM. The AC50 was greater than 30 µM in test [1]; greater than 30 µM at B2 bradykinin receptor; greater than 30 µM in test [6]; 1.41 µM in test [2]; greater than 10 µM on Vasopressin V1a receptor.
Take `NCCc1ccc(O)cc1` [TYRAMINE]: the half-maximal activity concentration (AC50) in test [1] and in [2] was greater than 30 µM throughout.
In the case of `CCCCCCCCCCCCCCCC(=O)OC/C=C(C)/C=C/C=C(C)/C=C/C1=C(C)CCCC1(C)C` [VITAMIN A PALMITATE], the half-maximal activity concentration (AC50) in test [1] and in test [2] was greater than 30 µM throughout.

Broadly, the AC50 is the concentration giving half of the maximal activity seen. The low end stands for activity at low concentration, the high end for activity only at high concentration.

These data come from ChEMBL document CHEMBL5291721, “A preclinical secondary pharmacology resource illuminates target-adverse drug reaction associations of marketed drugs” (Nat Commun, 2023).
